# Results published in patent publication US20240043527A1 (BioNTech SE, priority 2020, published 2024).
# Key:
# [1] = tested on: pancreatic cancer cell lines; conditions: cited from earlier work; for de novo CLDN-18.2 expression: CLDN-18.2-negative cell lines; for CLDN-18.2 expression levels: pancreatic cancer cell lines with existing expression
# [2] = tested on: locally advanced, unresectable or metastatic pancreatic cancer; conditions: erlotinib versus placebo; cited from earlier work
# [3] = tested on: advanced BTC; conditions: first-line treatment of advanced disease; cited from earlier work
# [4] = target: CLDN-18.2+ NUG-C4 transfectants; assay: In vitro ADCC assay (luciferase-based); assay type: cell-based, human; conditions: human PBMCs from three donors, E:T 30:1, 48 hours
# Method: RiboMab01-containing cell culture supernatant from CHO-K1 cells lipofected with RB_RMAB01 was subjected to (Panel A) ADCC and (Panel B) CDC assays. […] Human PBMCs of three different healthy donors were utilized as effector cells (E:T ratio 30:1). Target or control and effector cells were incubated for 48 hours with the indicated RiboMab01 and IMAB362 reference protein concentrations. Specific cell lysis as determined in a luciferase-based assay is shown. […] Target and control cells were incubated with human serum and RiboMab01 concentrations as indicated for 2 hours. CDC determined in a luciferase-based assay is shown. Error bars are standard errors of the mean (n=3).
# Mode of action analysis: Antibody-dependent cellular cytotoxicity (ADCC) and complement-dependent cytotoxicity (CDC) in vitro. […] To simulate in vivo conditions, human PBMCs from three different healthy donors were used as effector cells in ADCC assays in an effector to target (E:T) ratio of 30:1 and human serum (e.g., commercially available human serum) was used as a source of complement in CDC assays.
# [5] = tested on: CLDN-18.2+ NUG-C4 transfectants; assay: Ex vivo ADCC assay with serum of dosed non-human primates; assay type: cell-based; conditions: serum of monkey No. 14 (1.6 mg/kg) 48 hours after 3rd dosing or recombinant reference protein; 48 hours incubation
# Method: (§1) Non-Human Primates (NHP) received three repetitive doses of 0.1, 0.4 or 1.6 mg/kg RB_RMAB01 once weekly. RiboMab01-containing serum of all monkeys sampled 24 hours (black bars) and 168 hours (white bars) post 1st injection was directed to luciferase-based ex vivo ADCC assays. […] Human PBMCs from two different healthy donors (24 h, donor 1, 168 h, donor 2) served as effector cells. (Panel A) RiboMab01-mediated ADCC of NUG-C4 cells after 48 hours incubation is shown. (Panel B) Unspecific lysis on target-negative MDA-MB-231 cells is shown. Error bars are standard error of the mean (n=3). (Panel C) Serum of NHP No. 14 (1.6 mg/kg RB_RMAB01, RiboMab01 serum concentration 232 μg/mL) collected 48 hours after the 3rd dosing was used for a luciferase-based ex vivo ADCC assays. […] Human PBMCs of a healthy donor served as effector cells. […] Incubation time was 48 hours. Error bars are standard errors of the mean (n=3).
# (§2) ADCC assays were performed as described in Example 2. […] Purified IMAB362 served as assay reference protein.
# [6] = tested on: MDA-MB-231 cells; assay: Ex vivo ADCC assay with serum of dosed non-human primates, target-negative control cells; assay type: cell-based; conditions: FIG. 5 Panel C dilution row
# Method: as §1, §2
# [7] = cited from earlier work
# [8] = tested on: gastric and gastro-esophageal cancer; conditions: cited from earlier work
# [9] = tested on: CLDN-18.2+ cells; conditions: in serum; Sahin et al. 2018; cited from earlier work
# [10] = target: first extracellular domain (ECD1) of CLDN-18.2 (Homo sapiens, UniProt P56856); conditions: cited from earlier work
# [11] = cited from earlier work; remark: listed apart in the source
# [12] = tested on: PDAC; conditions: metastasized stage; Conroy et al. 2011; cited from earlier work
# [13] = Apparent pKa of the amino lipid; assay type: physicochemical
# [14] = ≥70% CLDN-18.2 expression subset, vs EOX, p<0.0005
molecule,measurement,setting,value
O=c1[nH]cc(F)c(=O)[nH]1 [5-fluorouracil],de novo CLDN-18.2 expression,[1],not observed to increase de novo expression
same,CLDN-18.2 expression levels,[1],upregulate existing CLDN-18.2 expression levels
C#Cc1cccc(Nc2ncnc3cc(OCCOC)c(OCCOC)cc23)c1 [erlotinib],median overall survival (OS) benefit,[2],0.4 month
same,median progression-free survival (PFS) benefit,[2],0.3 month
O=C1[O][Pt]2([NH][C@@H]3CCCC[C@H]3[NH]2)[O]C1=O [oxaliplatin],de novo CLDN-18.2 expression,[1],not observed to increase de novo expression
same,CLDN-18.2 expression levels,[1],upregulate existing CLDN-18.2 expression levels
Nc1ccn([C@@H]2O[C@H](CO)[C@@H](O)C2(F)F)c(=O)n1 [gemcitabine],de novo CLDN-18.2 expression,[1],not observed to increase de novo expression
same,CLDN-18.2 expression levels,[1],upregulate existing CLDN-18.2 expression levels
same,median OS,[3],8.1 months
IMAB362: full IgG1 monoclonal antibody targeting CLDN-18.2; used as recombinant reference protein,ADCC EC50,[4],0.014 to 0.265 µg/mL
same,EC50,[5],0.151 nM
same,unspecific lysis on control cells,[6],weak unspecific lysis
same,patients with grade 3 vomiting,"[7]; 12 patients, 600 mg/m^2 dose",22%
same,patients with fatigue,[7]; TEAE,22%
same,patients with nausea,[7]; TEAE,61%
same,patients with vomiting,[7]; TEAE,50%
same,patients with grade 3 nausea,"[7]; eight patients, 600 mg/m^2 dose",15%
same,patients with treatment emergent adverse events (TEAEs),[7]; n=44/54,82%
same,change of median overall survival,[8]; patients with ≥70% of tumor cells with ≥2+ CLDN-18.2 staining,near-doubling
same,benefit in overall survival (OS),[8]; [14],33.1 weeks
same,delay in central independent reviewed progression,[8]; [14],14.5 weeks
same,ADCC EC95 (concentration that gives 95% response),[9],0.3 to 28 µg/mL
same,binding to other claudin family members including CLDN18.1,[10],does not bind
same,recognition of ECD1 of CLDN-18.2,[10],high affinity and specificity
same,cmax,[11]; repeated doses up to 1000 mg/m^2 q3w,up to 603 μg/mL
same,tolerability across various trials,[11]; single agent and in combination with chemotherapy,well tolerated
FOLFIRINOX,median survival compared to gemcitabine alone,[12],nearly double median survival
"CCCCCCC(CCCC)C(=O)OCCCCCCCCCN(CCCO)CCCCCCCCCOC(=O)C(CCCC)CCCCCC (stereo not shown) [Cationic Lipid A, ((3-Hydroxypropyl)azanediyl)bis(nonane-9,1-diyl)bis(2-butyloctanoate)]",pKa,[13],~6.25
